# What was measured:
# Histone deacetylase 9 = Histone deacetylase 9 (Homo sapiens, UniProt Q9UKV0)
# Description: Inhibition of HDAC9 (unknown origin)
# [1] = biological target: T1, Polyamine deacetylase HDAC10 (Homo sapiens, UniProt Q969S8)
# T1 sequence (Q969S8 whole entry): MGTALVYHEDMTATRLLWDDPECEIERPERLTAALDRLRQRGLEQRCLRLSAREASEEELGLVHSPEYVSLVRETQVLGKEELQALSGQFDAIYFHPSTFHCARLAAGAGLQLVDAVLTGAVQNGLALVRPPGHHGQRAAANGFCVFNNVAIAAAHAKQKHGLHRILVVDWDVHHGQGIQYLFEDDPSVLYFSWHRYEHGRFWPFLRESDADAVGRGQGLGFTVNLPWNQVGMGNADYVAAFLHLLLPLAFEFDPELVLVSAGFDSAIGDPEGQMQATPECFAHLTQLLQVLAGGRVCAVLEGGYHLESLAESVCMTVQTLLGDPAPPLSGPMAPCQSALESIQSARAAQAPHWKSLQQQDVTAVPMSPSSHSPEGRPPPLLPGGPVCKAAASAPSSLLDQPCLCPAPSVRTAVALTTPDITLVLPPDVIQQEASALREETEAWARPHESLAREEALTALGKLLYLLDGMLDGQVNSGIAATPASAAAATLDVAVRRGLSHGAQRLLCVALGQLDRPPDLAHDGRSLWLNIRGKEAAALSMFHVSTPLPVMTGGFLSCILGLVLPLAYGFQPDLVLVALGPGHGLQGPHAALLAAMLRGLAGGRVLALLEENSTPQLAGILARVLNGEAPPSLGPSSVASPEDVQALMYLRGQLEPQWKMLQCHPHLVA
# Description: Inhibition of HDAC10 (unknown origin)
# Histone deacetylase 5 = Histone deacetylase 5 (Homo sapiens, UniProt Q9UQL6)
# Chain of Histone deacetylase 5 (Q9UQL6 whole entry): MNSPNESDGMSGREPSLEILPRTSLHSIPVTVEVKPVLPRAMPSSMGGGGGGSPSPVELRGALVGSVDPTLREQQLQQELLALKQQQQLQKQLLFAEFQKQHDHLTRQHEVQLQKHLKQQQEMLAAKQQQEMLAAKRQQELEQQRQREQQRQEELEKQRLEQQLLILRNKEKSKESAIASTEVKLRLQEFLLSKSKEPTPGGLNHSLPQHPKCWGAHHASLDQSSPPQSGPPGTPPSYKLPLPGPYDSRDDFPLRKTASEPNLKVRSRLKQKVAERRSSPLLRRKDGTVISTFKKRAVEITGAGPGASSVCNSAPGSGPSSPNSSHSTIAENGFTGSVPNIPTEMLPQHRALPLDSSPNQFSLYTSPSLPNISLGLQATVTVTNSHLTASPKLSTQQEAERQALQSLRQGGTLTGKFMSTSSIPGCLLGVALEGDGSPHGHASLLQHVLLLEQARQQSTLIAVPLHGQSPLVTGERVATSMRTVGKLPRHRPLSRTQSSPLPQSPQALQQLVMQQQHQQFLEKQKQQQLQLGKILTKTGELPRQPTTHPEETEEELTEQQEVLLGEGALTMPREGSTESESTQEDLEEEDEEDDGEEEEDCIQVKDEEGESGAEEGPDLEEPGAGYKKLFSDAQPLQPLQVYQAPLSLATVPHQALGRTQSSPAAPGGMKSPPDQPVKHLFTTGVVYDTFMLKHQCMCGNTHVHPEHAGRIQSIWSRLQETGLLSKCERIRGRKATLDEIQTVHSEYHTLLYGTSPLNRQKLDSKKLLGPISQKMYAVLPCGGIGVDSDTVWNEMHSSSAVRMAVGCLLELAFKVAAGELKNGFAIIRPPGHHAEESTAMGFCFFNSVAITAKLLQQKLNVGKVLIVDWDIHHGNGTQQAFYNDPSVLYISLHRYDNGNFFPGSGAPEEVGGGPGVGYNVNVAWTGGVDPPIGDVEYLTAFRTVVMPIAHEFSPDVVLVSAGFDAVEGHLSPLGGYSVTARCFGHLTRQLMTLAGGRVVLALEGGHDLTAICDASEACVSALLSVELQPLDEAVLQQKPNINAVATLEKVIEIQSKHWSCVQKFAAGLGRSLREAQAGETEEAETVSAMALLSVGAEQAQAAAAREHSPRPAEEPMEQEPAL
# Description: Inhibition of HDAC5 (unknown origin)
# Chain of Histone deacetylase 9 (Q9UKV0 whole entry): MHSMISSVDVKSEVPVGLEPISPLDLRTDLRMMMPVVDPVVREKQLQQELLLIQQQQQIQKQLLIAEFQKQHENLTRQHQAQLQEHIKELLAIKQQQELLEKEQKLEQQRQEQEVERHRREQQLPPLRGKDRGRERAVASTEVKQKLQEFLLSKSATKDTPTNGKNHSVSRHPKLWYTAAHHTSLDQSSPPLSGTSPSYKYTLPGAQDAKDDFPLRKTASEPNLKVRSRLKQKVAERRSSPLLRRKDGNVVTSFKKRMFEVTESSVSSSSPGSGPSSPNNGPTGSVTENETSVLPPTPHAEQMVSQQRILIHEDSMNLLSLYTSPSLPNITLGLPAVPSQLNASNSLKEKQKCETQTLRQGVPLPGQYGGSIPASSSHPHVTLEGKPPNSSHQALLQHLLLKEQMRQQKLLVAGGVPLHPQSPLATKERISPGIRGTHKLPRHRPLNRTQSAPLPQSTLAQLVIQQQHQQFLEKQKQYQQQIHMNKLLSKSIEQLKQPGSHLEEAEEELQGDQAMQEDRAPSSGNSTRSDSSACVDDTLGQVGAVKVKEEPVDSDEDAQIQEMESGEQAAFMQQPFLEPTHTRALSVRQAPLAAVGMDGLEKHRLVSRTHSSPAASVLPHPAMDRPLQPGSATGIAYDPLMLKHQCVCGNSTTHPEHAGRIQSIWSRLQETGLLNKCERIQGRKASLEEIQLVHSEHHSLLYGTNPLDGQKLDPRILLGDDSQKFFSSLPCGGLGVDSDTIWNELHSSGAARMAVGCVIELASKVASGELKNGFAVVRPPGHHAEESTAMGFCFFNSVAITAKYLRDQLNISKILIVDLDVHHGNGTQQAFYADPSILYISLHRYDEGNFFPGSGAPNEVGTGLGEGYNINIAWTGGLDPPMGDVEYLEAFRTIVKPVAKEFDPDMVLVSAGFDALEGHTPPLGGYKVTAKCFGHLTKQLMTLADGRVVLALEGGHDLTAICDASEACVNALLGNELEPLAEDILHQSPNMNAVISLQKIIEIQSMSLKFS
Structure (SMILES),IC50 (Histone deacetylase 9),IC50 [1],IC50 (Histone deacetylase 5)
Cn1cc(-c2ccc(S(=O)(=O)n3ccc(/C=C/C(=O)Nc4ccccc4N)c3)cc2)cn1 [DOMATINOSTAT],50 µM,21 µM,–
Cn1cc(CNCC2CCN(c3ncc(C(=O)NO)cn3)CC2)c2ccccc21 [QUISINOSTAT],–,0.00046 µM,0.00369 µM
